Like-named read-outs stand apart in the source and are kept apart here.
Columns and labels:
Assay type in all cases: biochemical
MMP-2 (Gelatinase A) = target: T1, MMP-2 (Gelatinase A) (Homo sapiens, UniProt P08253); test: inhibition of MMP-2 hydrolysis of thiopeptolide substrate
T1 sequence (P08253 110-660): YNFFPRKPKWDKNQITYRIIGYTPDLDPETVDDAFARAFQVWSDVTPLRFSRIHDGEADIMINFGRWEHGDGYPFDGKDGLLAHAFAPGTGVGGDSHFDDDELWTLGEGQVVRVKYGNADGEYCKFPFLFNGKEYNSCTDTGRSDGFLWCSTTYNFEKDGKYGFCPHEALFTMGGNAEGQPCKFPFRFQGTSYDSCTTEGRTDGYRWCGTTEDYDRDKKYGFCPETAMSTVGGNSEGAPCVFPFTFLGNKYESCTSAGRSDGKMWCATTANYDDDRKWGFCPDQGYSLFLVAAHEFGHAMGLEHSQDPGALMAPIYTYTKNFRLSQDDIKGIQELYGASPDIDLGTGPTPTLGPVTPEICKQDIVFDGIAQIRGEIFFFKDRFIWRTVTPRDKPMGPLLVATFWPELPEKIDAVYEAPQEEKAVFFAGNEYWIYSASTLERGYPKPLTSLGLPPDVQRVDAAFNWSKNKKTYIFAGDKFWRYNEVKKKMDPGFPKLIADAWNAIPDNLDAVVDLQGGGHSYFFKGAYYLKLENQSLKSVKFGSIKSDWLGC

MMP-3 (stromelysin) = MMP-3 (stromelysin) (Homo sapiens, UniProt P08254); test: inhibition of MMP-3 hydrolysis of thiopeptolide substrate
Sequence of MMP-3 (stromelysin) (P08254 100-477): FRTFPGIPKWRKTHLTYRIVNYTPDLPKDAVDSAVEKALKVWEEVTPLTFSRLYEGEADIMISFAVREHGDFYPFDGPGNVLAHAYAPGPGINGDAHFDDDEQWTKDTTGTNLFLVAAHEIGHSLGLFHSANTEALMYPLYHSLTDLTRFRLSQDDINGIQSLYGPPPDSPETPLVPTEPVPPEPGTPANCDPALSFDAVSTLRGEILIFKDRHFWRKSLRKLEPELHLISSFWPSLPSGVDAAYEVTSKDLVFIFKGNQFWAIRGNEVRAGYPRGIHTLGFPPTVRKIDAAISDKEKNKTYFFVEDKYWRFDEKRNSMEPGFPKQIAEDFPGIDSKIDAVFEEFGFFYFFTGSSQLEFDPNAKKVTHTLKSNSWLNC
Source text: The assays measure the amount by which a test compound reduces the hydrolysis of a thiopeptolide substrate caused by a matrix metalloproteinase enzyme. Such assays are described in detail by Ye, et al., in Biochemistry, 1992;31(45):11231-11235).
Thiopeptolide substrates show virtually no decomposition or hydrolysis in the absence of a matrix metalloproteinase enzyme. A typical thiopeptolide substrate commonly utilized for assays is Ac-Pro-Leu-Gly-thioester-Len-Len-Gly-O Et. […] Assays are carried out with and without matrix metalloproteinase inhibitor compounds, and the amount of hydrolysis is compared for a determination of inhibitory activity of the test compounds.
In the table, MMP-1 refers to interstitial collagenase; MMP-2 refers to Gelatinase A; MMP-3 refers to stromelysin; MMP-7 refers to matrilysin; and MMP-13 refers to Collagenase 3.

MMP-13 (Collagenase 3) = MMP-13 (Collagenase 3) (Homo sapiens, UniProt P45452); test: inhibition of MMP-13 hydrolysis of thiopeptolide substrate
Source text: The invention compounds have been evaluated in standard in vitro assays and shown to be potent inhibitors of several matrix metalloproteinase enzymes.

[1] = thiopeptolide substrate, pH 6.0, 22° C., read-out: (IC50) MMP-2
[2] = thiopeptolide substrate, pH 6.0, 22° C., read-out: (IC50) MMP-3
[3] = thiopeptolide substrate, pH 6.0, 22° C., read-out: (IC50) MMP-13

IC50 (MMP-2 (Gelatinase A); [1]) [µM]	IC50 (MMP-3 (stromelysin); [2]) [µM]	IC50 (MMP-13 (Collagenase 3); [3]) [µM]	Compound	IC50 (MMP-2 (Gelatinase A)) [µM]	IC50 (MMP-3 (stromelysin)) [µM]	IC50 (MMP-13 (Collagenase 3)) [µM]
44	78	–	O=C(C[C@@H](NC(=O)C(F)(F)F)C(=O)O)c1ccc2oc3ccccc3c2c1 [Example 2, (R)-4-Dibenzofuran-2-yl-4-oxo-2-(2,2,2-trifluoroacetylamino)-butyric acid]	–	–	–
0.18	0.91	–	O=C(C[C@H](NC(=O)c1ccccc1)C(=O)O)c1ccc2oc3ccccc3c2c1 [Example 6, (S)-2-Benzoylamino-4-dibenzofuran-2-yl-4-oxo-butyric acid]	–	–	–
0.067	0.29	1.3	O=C(CCc1ccccc1)N[C@@H](CC(=O)c1ccc2oc3ccccc3c2c1)C(=O)O [Example 8, (S)-4-Dibenzofuran-2-yl-4-oxo-2-(3-phenylpropionylamino)-butyric acid]	–	–	–
0.51	3.9	–	O=C(CCCCCCc1ccccc1)N[C@@H](CC(=O)c1ccc2oc3ccccc3c2c1)C(=O)O [Example 9, (S)-4-Dibenzofuran-2-yl-4-oxo-2-(7-phenylheptanoylamino)-butyric acid]	–	–	–
1.64	9.4	–	O=C(C[C@H](NC(=O)c1ccc(-c2ccccc2)cc1)C(=O)O)c1ccc2oc3ccccc3c2c1 [Example 10, (S)-2-[(Biphenyl-4-carbonyl)-amino]-4-dibenzofuran-2-yl-4-oxo-butyric acid]	–	–	–
0.64	3.1	46	O=C(COc1ccc(Cl)cc1)NC(CC(=O)c1ccc2oc3ccccc3c2c1)C(=O)O (stereo not drawn) [Example 19, 2-[2-(4-Chloro-phenoxy)-acetylamino]-4-dibenzofuran-2-yl-4-oxo-butyric acid]	–	–	–
1.3	7	38	O=C(CC(NC(=O)c1ccc(Cl)c(Cl)c1)C(=O)O)c1ccc2oc3ccccc3c2c1 (stereo not drawn) [Example 20]	–	–	–
0.32	2.4	16	COc1ccc(CC(=O)NC(CC(=O)c2ccc3oc4ccccc4c3c2)C(=O)O)cc1OC (stereo not drawn) [Example 21, 4-Dibenzofuran-2-yl-2-[2-(3,4-dimethoxy-phenyl)-acetylamino] -4-oxo-butyric acid]	–	–	–
1.7	6.9	28	O=C(CC(NC(=O)c1ccc2ccccc2c1)C(=O)O)c1ccc2oc3ccccc3c2c1 (stereo not drawn) [Example 22, 4-Dibenzofuran-2-yl-2-[(naphthalene-2-carbonyl)-amino] -4-oxo-butyric acid]	–	–	–
3.2	13	41	O=C(CC(NC(=O)c1ccncc1)C(=O)O)c1ccc2oc3ccccc3c2c1 (stereo not drawn) [Example 24, 4-Dibenzofuran-2-yl-4-oxo-2-[(pyridine-4-carbonyl)-amino]-butyric acid]	–	–	–
0.11	0.8	8.4	O=C(C=Cc1ccccc1)NC(CC(=O)c1ccc2oc3ccccc3c2c1)C(=O)O (stereo not drawn) [Example 25, 4-Dibenzofuran-2-yl-4-oxo-2-(3-phenyl-acryloylamino)-butyric acid]	–	–	–
0.18	0.51	12	O=C(COc1ccccc1)NC(CC(=O)c1ccc2oc3ccccc3c2c1)C(=O)O (stereo not drawn) [Example 28, 4-Dibenzofuran-2-yl-4-oxo-2-(2-phenoxy-acetylamino)-butyric acid]	–	–	–
–	0.39	5.2	Cc1ccc(C(=O)NC(CC(=O)c2ccc3oc4ccccc4c3c2)C(=O)O)cc1 (stereo not drawn) [Example 29, 4-Dibenzofuran-2-yl-2-(4-methyl-benzoylamino)-4-oxo-butyric acid]	–	–	–
0.6	5.3	25	O=C(CCCc1ccc(Br)cc1)NC(CC(=O)c1ccc2oc3ccccc3c2c1)C(=O)O (stereo not drawn) [Example 31, 2-[4-(4-Bromo-phenyl)-butyrylamino]-4-dibenzofuran-2-yl-4-oxo-butyric acid]	–	–	–
0.041	0.33	3.5	O=C(COCc1ccccc1)NC(CC(=O)c1ccc2oc3ccccc3c2c1)C(=O)O (stereo not drawn) [Example 32, 2-(2-Benzyloxy-acetylamino)-4-dibenzofuran-2-yl-4-oxo-butyric acid]	–	–	–

Continued, molecule first:

Compound	IC50 (MMP-2 (Gelatinase A); [1]) [µM]	IC50 (MMP-3 (stromelysin); [2]) [µM]	IC50 (MMP-13 (Collagenase 3); [3]) [µM]	IC50 (MMP-2 (Gelatinase A)) [µM]	IC50 (MMP-3 (stromelysin)) [µM]	IC50 (MMP-13 (Collagenase 3)) [µM]
CC(=O)N[C@@H](CC(=O)c1ccc2oc3ccccc3c2c1)C(=O)O [Example 4, (S)-2-Acetylamino-4-dibenzofuran-2-yl-4-oxo-butyric acid]	–	1.6	–	–	–	–
CC(C)c1cccc(C(C)C)c1NC(=O)N[C@@H](CC(=O)c1ccc2oc3ccccc3c2c1)C(=O)O [Example 5, (S)-4-Dibenzofuran-2-yl-2-[3-(2,6-diisopropyl-phenyl)-ureido]-4-oxo-butyric acid]	0.32	1.7	–	–	–	–
CCCCCCCC(=O)N[C@@H](CC(=O)c1ccc2oc3ccccc3c2c1)C(=O)O [Example 11, (S)-4-Dibenzofuran-2-yl-4-oxo-2-(octanoylamino)-butyric acid]	0.36	2.7	6.8	–	–	–
CCCCCCCCCCCC(=O)N[C@@H](CC(=O)c1ccc2oc3ccccc3c2c1)C(=O)O [Example 12, (S)-4-Dibenzofuran-2-yl-4-oxo-2-(dodecanoylamino)-butyric acid]	8.8	4	–	–	–	–
CS(=O)(=O)N[C@@H](CC(=O)c1ccc2oc3ccccc3c2c1)C(=O)O [Example 13, (S)-4-Dibenzofuran-2-yl-4-oxo-2-methanesulfonylamino-butyric acid]	0.28	9.2	–	–	–	–
O=C(C[C@H](NC(=O)C(F)(F)F)C(=O)O)c1ccc2c(c1)Cc1ccccc1-2 [Example 15, (S)-4-(9H-fluoren-2-yl)-4-oxo-2-(2,2,2-trifluoroacetylamino)-butyric acid]	12.5	76.5	–	–	–	–
O=C(O)[C@H](CC(=NO)c1ccc2oc3ccccc3c2c1)NC(=O)C(F)(F)F [Example 16, (S)-4-Dibenzofuran-2-yl-4-hydroxyimino-2-(2,2,2-trifluoroacetylamino)-butyric acid]	0.72	6.6	2.4	–	–	–
O=C(CC(NC(=O)C(c1ccccc1)c1ccccc1)C(=O)O)c1ccc2oc3ccccc3c2c1 (stereo not drawn) [Example 18, 4-Dibenzofuran-2-yl-2-diphenylacetylamino-4-oxo-butyric acid]	0.1	0.36	1.1	–	–	–
CCCC(C)(C)C(=O)NC(CC(=O)c1ccc2oc3ccccc3c2c1)C(=O)O (stereo not drawn) [Example 23, 4-Dibenzofuran-2-yl-2-(2,2-dimethyl-pentanoylamino)-4-oxo-butyric acid]	0.17	0.76	5.6	–	–	–
O=C(CC(NC(=O)C12CC3CC(CC(C3)C1)C2)C(=O)O)c1ccc2oc3ccccc3c2c1 (stereo not drawn) [Example 26, 2-[(Adamantane-1-carbonyl)-amino]-4-dibenzofuran-2-yl-4-oxo-butyric acid]	2.1	9.2	40	–	–	–
O=C(CC(NC(=O)C(F)(F)C(F)(F)C(F)(F)C(F)(F)C(F)(F)C(F)(F)C(F)(F)F)C(=O)O)c1ccc2oc3ccccc3c2c1 (stereo not drawn) [Example 27, 4-Dibenzofuran-2-yl-4-oxo-2-(2,2,3,3,4,4,5,5,6,6,7,7,8,8,8-pentadecafluoro-octanoylamino)-butyric acid]	–	–	–	4.6	18	77
O=C(CC(NC(=O)c1c(F)c(F)c(F)c(F)c1F)C(=O)O)c1ccc2oc3ccccc3c2c1 (stereo not drawn) [Example 40, 4-Dibenzofuran-2-yl-4-oxo-2-(2,3,4,5,6-pentafluoro-benzoylamino)-butyric acid]	5.2	28	–	–	–	–
